# Source: patent publication US7074824B2, “Pharmaceutical compositions containing beta-lapachone, or derivatives or analogs thereof, and methods of using same” (Arqule, Inc., priority 2001, dated 2006)
# Like-named read-outs stand apart in the source and are kept apart here.
# Experiments:
# [1] = Solubility of β-lapachone in common solvent systems used for intravenous delivery; format: physicochemical
# Source text: β-lapachone, as well as its derivatives and analogs thereof (also referred to herein as the “active compounds”), are described in Li, C. J. et al., J. Biol. Chem., 1993. These active compounds can be incorporated into pharmaceutical compositions suitable for parenteral administration. Such compositions typically comprise the active compound and a pharmaceutically acceptable carrier, excipient, diluent or adjuvant. However, the low solubility of β-lapachone in most pharmaceutically acceptable solvents has been an obstacle to the development of a suitable formulation for parenteral and topical administration, particularly intravenous and cutaneous administration, respectively. Table 1 illustrates the limited solubility of β-lapachone in common solvent systems used for intravenous delivery of drugs. […] To achieve this plasma concentration, an intravenous formulation must have a β-lapachone concentration approaching 10 mg/ml and be able to be diluted 5–×10× with sterile fluids for intravenous administration, such as saline or D5W.
# Various pharmaceutically acceptable solvent systems known to solubilize hydrophobic drug substances were evaluated with β-lapachone. […] However, none of these systems could be diluted 5× with sterile saline without significant precipitation of the β-lapachone from solution. In addition, most of these co-solvents and surfactants have their own toxicity and tolerability issues that need to be managed during high dose drug administration.
# [2] = Solubility of β-lapachone in aqueous HPBCD solutions (heated to 70° C., filtered, HPLC); format: physicochemical
# Method: A β-lapachone/HPBCD solution was prepared without prior solubilization of the β-lapachone in ethanol solution. β-lapachone was combined with aqueous solutions of HPBCD in varying concentrations and the mixtures were heated to 70° C., then allowed to cool to room temperature. The cooled solutions were filtered (0.22μ), and the amount of the solubilized β-lapachone was measured by HPLC analysis.
# [3] = Solubility in water and in 40% (w/v) HPBCD solution by UV absorbance; format: physicochemical; conditions: for solubility at 1 h: thermodynamic from solid
# Method: To determine solubilities, test compounds were first dissolved in ethanol to prepare standard solutions with concentrations in the range 2.5–10 mg/ml, then were diluted with to 10 μg/ml with water. UV scans were obtained of the 10 μg/ml standard solutions, and the wavelength of maximum absorbance and the absorbance at the maximum absorbance wavelength were determined. For each test compound 50 μl aliquots of water and of 40% HPBCD were added to individual Eppendorf tubes containing approximately 1 mg of compound each. The tubes were heated in a 30° C. waterbath, vortexed, then centrifuged at 15,000 rpm for 5 min. This step was repeated, then the tubes were cooled to room temperature for 1 hour, then were centrifuged again. The supernatant from each tube was diluted with water into the appropriate absorbance range, and the UV absorbance was measured at the compound's absorbance maximum wavelength. The concentrations of these saturated solutions were then calculated by ratio to the 10 μg/ml ethanolic standard solutions.
# [4] = system: six human cancer cells lines; assay: MTS growth inhibition assay, summary over all lines; format: cell-based; conditions: all six tumor cell lines; tested up to 20 μM
# Method: A2780 and A2780/CP (ovarian); MCF-7 (breast); HT-29 (colon); BxPC-3 (pancreas); and A549 (lung). The human tumor cell lines (purchased from ATCC, Rockville, Md.) were cultured at 37° C. (5% CO2) in RPMI medium (RPMI; Nova Tech, Grand Island, N.Y.) containing 10% fetal bovine serum (FBS, Nova Tech). Aliquots of cells were seeded into each well of 96-well microtiter plates at a final concentration of 10^4 cells/well and incubated for 24 h prior to exposure to test compounds. […] The MTS assay is a colorimetric assay based upon the ability of viable cells to convert MTS, a novel tetrazolium compound and electron-coupling reagent, to a colored formazan product that is soluble in cell culture medium. The cell concentration is then determined by measuring the absorbance of the formazan product at 490 nm. Growth inhibition, expressed as IC50, is calculated relative to vehicle-treated control cells.
# human carcinoma cells = assay: Colony formation assay of β-lapachone combined with Taxol®; format: cell-based; conditions: 4 h exposure, colonies scored after 10–20 days; ovarian, breast, prostate, melanoma, lung and pancreatic cell lines, FIG. 4
# Method: In these studies, exponentially growing cells were seeded at 1,000 cells per well in six-well plates and allowed to attach for 48 h. β-lapachone and/or Taxol®, solubilized in DMSO, were added to the wells. Control wells were treated with equivalent volumes of DMSO. After 4 h cells were rinsed and fresh medium was added. Cultures were observed daily for 10–20 days and then were fixed and stained. Colonies of greater than 30 cells were scored as survivors.
# A2780DDP = system: A2780DDP
# Method: In testing β-lapachone against the cisplatin-resistant-cell lines, cells were exposed to β-lapachone solutions for 4 h. The cells were then rinsed and fresh medium was added. Cultures were observed daily for 10–20 days and then were fixed and stained. Colonies of greater than 30 cells were scored as survivors.
# human cancer cell lines = conditions: single agent, typical range; read-out: antineoplastic activity (IC50); cited from earlier work
# [5] = target: human DNA Topoisomerases II (Homo sapiens, UniProt P11388); conditions: cited from earlier work
# human DNA Topoisomerases II, sequence (P11388 whole entry): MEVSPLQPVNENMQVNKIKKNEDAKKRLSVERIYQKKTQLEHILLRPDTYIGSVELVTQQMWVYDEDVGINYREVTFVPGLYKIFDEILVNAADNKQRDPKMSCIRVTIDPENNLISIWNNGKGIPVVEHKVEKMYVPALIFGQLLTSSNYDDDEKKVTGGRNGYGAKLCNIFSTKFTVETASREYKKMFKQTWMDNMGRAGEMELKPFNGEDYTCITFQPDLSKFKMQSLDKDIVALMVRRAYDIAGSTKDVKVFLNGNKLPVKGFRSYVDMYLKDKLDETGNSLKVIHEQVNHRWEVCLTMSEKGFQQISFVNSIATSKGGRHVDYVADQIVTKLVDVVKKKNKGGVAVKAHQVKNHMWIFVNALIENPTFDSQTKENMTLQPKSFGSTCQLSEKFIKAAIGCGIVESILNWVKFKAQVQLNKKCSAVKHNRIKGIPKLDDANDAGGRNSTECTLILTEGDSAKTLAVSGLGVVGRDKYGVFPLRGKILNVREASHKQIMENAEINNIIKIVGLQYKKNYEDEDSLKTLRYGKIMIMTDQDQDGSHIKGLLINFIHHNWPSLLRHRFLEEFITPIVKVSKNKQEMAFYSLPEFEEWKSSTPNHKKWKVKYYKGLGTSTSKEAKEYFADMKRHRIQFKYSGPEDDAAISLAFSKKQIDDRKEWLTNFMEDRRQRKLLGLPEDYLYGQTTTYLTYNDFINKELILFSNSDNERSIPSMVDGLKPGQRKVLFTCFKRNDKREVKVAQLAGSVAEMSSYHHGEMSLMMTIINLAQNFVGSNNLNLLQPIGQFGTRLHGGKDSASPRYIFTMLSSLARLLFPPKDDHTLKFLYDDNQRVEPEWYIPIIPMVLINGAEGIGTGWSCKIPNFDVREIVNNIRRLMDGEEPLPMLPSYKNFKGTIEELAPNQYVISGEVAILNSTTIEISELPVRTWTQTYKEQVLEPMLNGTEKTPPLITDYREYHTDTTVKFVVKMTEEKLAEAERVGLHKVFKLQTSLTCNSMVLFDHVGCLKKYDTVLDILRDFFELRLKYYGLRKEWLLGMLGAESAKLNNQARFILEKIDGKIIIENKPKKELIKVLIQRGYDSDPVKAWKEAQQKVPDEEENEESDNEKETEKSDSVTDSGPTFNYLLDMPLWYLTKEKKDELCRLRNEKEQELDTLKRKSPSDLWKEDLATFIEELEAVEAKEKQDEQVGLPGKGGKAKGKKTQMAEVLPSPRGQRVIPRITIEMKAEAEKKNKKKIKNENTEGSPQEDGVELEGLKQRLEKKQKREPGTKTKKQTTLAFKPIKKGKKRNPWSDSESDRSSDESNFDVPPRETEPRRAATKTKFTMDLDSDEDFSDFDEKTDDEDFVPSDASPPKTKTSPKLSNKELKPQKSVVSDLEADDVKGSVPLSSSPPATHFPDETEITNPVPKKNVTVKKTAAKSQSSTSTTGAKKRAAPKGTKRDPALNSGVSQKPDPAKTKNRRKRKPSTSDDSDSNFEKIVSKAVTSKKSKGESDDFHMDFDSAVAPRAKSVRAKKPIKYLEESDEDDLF
# human PBMC = conditions: cited from earlier work
smiles,measurement,setting,value
CC1(C)CCC2=C(O1)c1ccccc1C(=O)C2=O [β-lapachone],solubility,"[1]; EtOH 76% diluted 5X in 0.9% saline, aqueous with cosolvent or surfactant or cyclodextrin, EtOH 76%, diluted in 0.9% saline, read-out: β-lapachone Solubility, 5X dilution",102 µg/mL
same,solubility,"[1]; EtOH 76%, organic solvent or mixture, read-out: β-lapachone Solubility, Undiluted",10700 µg/mL
same,solubility,"[1]; PEG 400, organic solvent or mixture, read-out: β-lapachone Solubility, Undiluted",11700 µg/mL
same,solubility,"[1]; PEG 400 diluted 5X in 0.9% saline, aqueous with cosolvent or surfactant or cyclodextrin, PEG 400, diluted in 0.9% saline, read-out: β-lapachone Solubility, 5X dilution",140 µg/mL
same,solubility,"[1]; Poloxamer 20% diluted 5X in 0.9% saline, aqueous with cosolvent or surfactant or cyclodextrin, Poloxamer 20%, diluted in 0.9% saline, read-out: β-lapachone Solubility, 5X dilution",33.1 µg/mL
same,solubility,"[1]; Poloxamer 20%, aqueous with cosolvent or surfactant or cyclodextrin, read-out: β-lapachone Solubility, Undiluted",2040 µg/mL
same,solubility,"[1]; Povidone K12 20% diluted 5X in 0.9% saline, aqueous with cosolvent or surfactant or cyclodextrin, Povidone K12 20%, diluted in 0.9% saline, read-out: β-lapachone Solubility, 5X dilution",31.3 µg/mL
same,solubility,"[1]; Povidone K12 20%, aqueous with cosolvent or surfactant or cyclodextrin, read-out: β-lapachone Solubility, Undiluted",1860 µg/mL
same,solubility,"[1]; Povidone K17 20% diluted 5X in 0.9% saline, aqueous with cosolvent or surfactant or cyclodextrin, Povidone K17 20%, diluted in 0.9% saline, read-out: β-lapachone Solubility, 5X dilution",31.2 µg/mL
same,solubility,"[1]; Povidone K17 20%, aqueous with cosolvent or surfactant or cyclodextrin, read-out: β-lapachone Solubility, Undiluted",1820 µg/mL
same,solubility,"[1]; Propylene Glycol diluted 5X in 0.9% saline, aqueous with cosolvent or surfactant or cyclodextrin, Propylene Glycol, diluted in 0.9% saline, read-out: β-lapachone Solubility, 5X dilution",95 µg/mL
same,solubility,"[1]; Propylene Glycol, organic solvent or mixture, read-out: β-lapachone Solubility, Undiluted",8780 µg/mL
same,solubility,"[1]; Trappsol 20% diluted 5X in 0.9% saline, aqueous with cosolvent or surfactant or cyclodextrin, Trappsol 20%, diluted in 0.9% saline, read-out: β-lapachone Solubility, 5X dilution",30 µg/mL
same,solubility,"[1]; Trappsol 20%, aqueous with cosolvent or surfactant or cyclodextrin, read-out: β-lapachone Solubility, Undiluted",1460 µg/mL
same,solubility,"[1]; Tween 80, aqueous with cosolvent or surfactant or cyclodextrin, read-out: β-lapachone Solubility, Undiluted",11200 µg/mL
same,solubility,"[1]; Tween 80 diluted 5X in 0.9% saline, aqueous with cosolvent or surfactant or cyclodextrin, Tween 80, diluted in 0.9% saline, read-out: β-lapachone Solubility, 5X dilution",1660 µg/mL
same,solubility,"[1]; organic solvent or mixture, highest of all solvent systems, undiluted, read-out: maximum solubility in the solvents listed in Table 1",~12000 µg/mL
same,β-lapachone (highest conc.),[2]; 10% HPBCD in water,3.1 mg/mL
same,β-lapachone (highest conc.),[2]; 20% HPBCD in water,7.4 mg/mL
same,β-lapachone (highest conc.),[2]; 30% HPBCD in water,10.8 mg/mL
same,β-lapachone (highest conc.),[2]; 40% HPBCD in water,15.8 mg/mL
same,Solubility Enhancement,[3]; 1 h,323 −Fold
same,solubility at 1 h,[3]; aqueous with cosolvent or surfactant or cyclodextrin,14000 µg/mL
same,solubility at 1 h,[3]; water,43 µg/mL
same,"growth inhibitory activity, verbal summary",[4],dose-dependent inhibitory effect
same,inhibition of cancer cell survival (colony formation),human carcinoma cells,much less effective
same,"cytotoxicity as single agent, resistant versus parent line",A2780DDP,equally cytotoxic
same,IC50,human cancer cell lines,1 to 10 µM
same,in vitro inhibition,[5],potent in vitro inhibition
same,cytotoxic effects on normal cells,human PBMC,No cytotoxic effects were observed
